# Laboratory results reported in article PMC7327383, “The affinity and selectivity of α‐adrenoceptor antagonists, antidepressants, and antipsychotics for the human α1A, α1B, and α1D‐adrenoceptors” (Pharmacology Research & Perspectives, 2020).
# Where two headings read alike, the source gives them in different places.
# Columns and labels:
# [1] = target: T1, full-length human α1D-adrenoceptor (Homo sapiens, UniProt P25100); test: [3H]prazosin whole-cell competition binding, CHO-α1D cells
# T1 sequence (P25100 1-572): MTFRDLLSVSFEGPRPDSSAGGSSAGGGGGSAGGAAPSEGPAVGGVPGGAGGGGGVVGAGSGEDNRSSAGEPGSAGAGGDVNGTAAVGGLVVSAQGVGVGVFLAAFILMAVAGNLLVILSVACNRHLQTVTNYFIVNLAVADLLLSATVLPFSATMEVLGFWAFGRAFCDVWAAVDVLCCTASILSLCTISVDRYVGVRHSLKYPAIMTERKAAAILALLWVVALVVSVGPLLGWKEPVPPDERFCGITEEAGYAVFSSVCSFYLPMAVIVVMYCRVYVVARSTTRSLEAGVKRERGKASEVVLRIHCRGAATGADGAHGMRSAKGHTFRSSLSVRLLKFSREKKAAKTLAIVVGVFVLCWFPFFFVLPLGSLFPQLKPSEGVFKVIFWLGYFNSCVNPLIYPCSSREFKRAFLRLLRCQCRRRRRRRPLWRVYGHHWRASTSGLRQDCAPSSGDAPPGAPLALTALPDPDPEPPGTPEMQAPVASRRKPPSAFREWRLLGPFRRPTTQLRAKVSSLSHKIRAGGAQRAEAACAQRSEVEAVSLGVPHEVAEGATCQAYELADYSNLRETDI
# human α1B-adrenoceptor = target: T2, human α1B-adrenoceptor (Homo sapiens, UniProt P35368); test: [3H]prazosin whole-cell competition binding, CHO-α1B cells; settings: for Kd: read-out: Log KD α1B (converted); for Selectivity ratio α1B vs α1D: ratio of KD values, higher α1B affinity, 1.0 under vs = none
# T2 construct: CHO cells stably expressing either the full‐length human α1A, α1B, or α1D‐adrenoceptor
# T2 sequence (P35368 1-520): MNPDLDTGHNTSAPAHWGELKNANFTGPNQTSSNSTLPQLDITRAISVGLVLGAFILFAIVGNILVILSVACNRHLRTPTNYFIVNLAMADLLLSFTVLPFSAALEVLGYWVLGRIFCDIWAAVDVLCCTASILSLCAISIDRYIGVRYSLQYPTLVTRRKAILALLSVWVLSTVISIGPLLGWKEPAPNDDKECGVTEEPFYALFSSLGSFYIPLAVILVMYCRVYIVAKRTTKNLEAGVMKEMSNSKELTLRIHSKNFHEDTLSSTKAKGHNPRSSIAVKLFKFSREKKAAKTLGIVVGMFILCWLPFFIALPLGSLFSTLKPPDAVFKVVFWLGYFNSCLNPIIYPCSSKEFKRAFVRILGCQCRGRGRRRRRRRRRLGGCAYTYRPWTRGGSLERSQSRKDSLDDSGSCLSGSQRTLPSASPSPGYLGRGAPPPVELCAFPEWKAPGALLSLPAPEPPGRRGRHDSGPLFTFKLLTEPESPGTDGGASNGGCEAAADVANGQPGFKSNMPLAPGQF
# human α1A-adrenoceptor = target: T3, human α1A-adrenoceptor (Homo sapiens, UniProt P35348); test: [3H]prazosin whole-cell competition binding, CHO-α1A cells; settings: for selectivity α1A vs 1D / selectivity α1A vs α1B: ratio, 1 = no selectivity for a subtype over another; for selectivities α1A vs α1B / selectivities α1A vs α1D: selectivity ratio, 1 = no selectivity for a given receptor subtype over another
# T3 construct: CHO cells stably expressing either the full‐length human α1A, α1B, or α1D‐adrenoceptor
# T3 sequence (P35348 1-466): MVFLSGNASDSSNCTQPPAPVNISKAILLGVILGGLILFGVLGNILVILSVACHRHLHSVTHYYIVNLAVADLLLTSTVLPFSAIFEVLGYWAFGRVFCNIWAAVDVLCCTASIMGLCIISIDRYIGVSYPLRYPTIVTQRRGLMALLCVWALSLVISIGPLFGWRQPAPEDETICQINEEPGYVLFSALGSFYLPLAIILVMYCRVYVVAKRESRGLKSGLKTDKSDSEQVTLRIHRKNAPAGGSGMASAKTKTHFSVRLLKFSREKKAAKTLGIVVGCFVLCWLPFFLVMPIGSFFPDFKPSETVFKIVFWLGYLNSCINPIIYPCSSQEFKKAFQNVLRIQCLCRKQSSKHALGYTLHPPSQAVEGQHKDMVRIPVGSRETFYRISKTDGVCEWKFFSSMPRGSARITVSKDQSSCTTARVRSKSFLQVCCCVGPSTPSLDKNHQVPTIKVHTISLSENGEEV
# [2] = low-affinity component of two-component curve, control
# [3] = ratio of KD values, higher α1D affinity (site 1 KD)
# [4] = two-component inhibition curve, proportion of site 1
# [5] = ratio, 1 = no selectivity for a subtype over another
# [6] = share of site 1 in the two-component inhibition curve
# [7] = ratio of KD values, higher α1A affinity, 1.0 under vs = none
# [8] = ratio of KD values, printed under α1A = higher α1A affinity, 1.0 under vs = none
# [9] = Log KD α1D, single-component inhibition curve, given as log KD (negative), mean ± SE mean
# [10] = single-component inhibition curve, given as log KD (negative), mean ± SE mean
# [11] = single-component inhibition curve, given as log KD (negative), mean ± SE mean, read-out: Log KD α1A (converted)
# [12] = log KD from 3H-prazosin whole cell binding, CHO cells, mean ± s.e.mean
# [13] = percentage of inhibition through first component, control
compound,measurement,setting,value
ClCCN(Cc1ccccc1)Cc1ccccc1 [Dibenamine],Log KD α1D site 1,"[1]; high-affinity component of two-component curve, control, used for selectivity",−7.37 ± 0.15
same,Log KD α1D site 2,[1]; [2],−5.00 ± 0.14
same,Selectivity ratio α1B vs α1D,[1]; [3],6.3 fold
same,% site 1 α1D,[1]; [4],-7.37 ± 0.15 -5.00 ± 0.14 47.8 ± 3.2% site 1
same,Log KD α1B site 1,"human α1B-adrenoceptor; high-affinity component of two-component curve, control",−6.57 ± 0.07
same,Log KD α1B site 2,human α1B-adrenoceptor; [2],−4.66 ± 0.06
same,selectivity α1B vs α1D,human α1B-adrenoceptor; [5],6.3
same,"% site 1, α1B",human α1B-adrenoceptor; [6],-6.57 ± 0.07 -4.66 ± 0.06 67.6 ± 2.6% site 1
same,"% site 1, α1B",human α1B-adrenoceptor; [4],-6.57 ± 0.07 -4.66 ± 0.06 67.6 ± 2.6% site 1
same,Log KD α1A site 1,"human α1A-adrenoceptor; high-affinity component of two-component curve, control (no thiosulphate)",−7.91 ± 0.06
same,Log KD α1A site 2,human α1A-adrenoceptor; [2],−5.32 ± 0.08
same,Selectivity ratio α1A vs α1D,human α1A-adrenoceptor; [7],3.5 fold
same,Selectivity ratio α1A vs α1B,human α1A-adrenoceptor; [8],22 fold
same,"% site 1, α1A",human α1A-adrenoceptor; [6],-7.91 ± 0.06 -5.32 ± 0.08 83.0 ± 1.8% site 1
same,"% site 1, α1A",human α1A-adrenoceptor; [4],-7.91 ± 0.06 -5.32 ± 0.08 83.0 ± 1.8% site 1
C[C@H](Cc1cc2c(c(C(N)=O)c1)N(CCCO)CC2)NCCOc1ccccc1OCC(F)(F)F [Silodosin],Kd,[1]; [9],115 nM
same,Selectivity ratio α1B vs α1D,[1]; [3],2.8 fold
same,selectivity α1B vs α1D,human α1B-adrenoceptor; [5],2.8
same,Kd,human α1B-adrenoceptor; [10],316 nM
same,Selectivity ratio α1A vs α1D,human α1A-adrenoceptor; [7],468 fold
same,Selectivity ratio α1A vs α1B,human α1A-adrenoceptor; [8],1288 fold
same,Kd,human α1A-adrenoceptor; [11],0.245 nM
same,Kd,"human α1A-adrenoceptor; subtype not given, ligands with α1A selectivity (Table 1: α1A), read-out: affinity",< 0.25 nM
CCN1CCCC1CNC(=O)c1cc(S(=O)(=O)CC)c(N)cc1OC (centres unmarked) [Amisulpiride],Log KD α1D (apparent),"[1]; app: top concentration inhibited most but not all specific binding, curve extrapolated",−4.55 ± 0.08^app
same,Log KD α1B: result in words,human α1B-adrenoceptor; no inhibition of [3H]prazosin binding at maximum concentration possible,No binding to 100 µmol/L
same,binding at α1B,human α1B-adrenoceptor; result in words in the Log KD α1B column,No binding to 100µM
same,binding at α1B (result in words),human α1B-adrenoceptor; up to the maximum concentration,No binding to 100µM
same,Log KD α1A,human α1A-adrenoceptor; [10],−5.05 ± 0.04
CNCCCN1c2ccccc2CCc2ccc(Cl)cc21 [Norclomipramine],Log KD α1D,[1]; [10],−5.84 ± 0.06
same,Selectivity ratio α1B vs α1D,human α1B-adrenoceptor,1.0 fold
same,Log KD α1B,human α1B-adrenoceptor; [10],−5.84 ± 0.04
same,Selectivity ratio α1A vs α1D,human α1A-adrenoceptor; [7],48 fold
same,Selectivity ratio α1A vs α1B,human α1A-adrenoceptor; [8],48 fold
same,selectivity α1A vs 1D,human α1A-adrenoceptor,48
same,selectivity α1A vs α1B,human α1A-adrenoceptor,48
same,selectivities α1A vs α1B,human α1A-adrenoceptor,48
same,selectivities α1A vs α1D,human α1A-adrenoceptor,48
same,Log KD α1A,human α1A-adrenoceptor; [10],−7.52 ± 0.08
CN1CC[C@]2(CCN3CCc4c(oc5ccccc45)[C@@H]3C2)N(C)C1=O.Cl [MK-912],Log KD α1D site 1,"[1]; two-component inhibition curve, first (high-affinity) component",-7.30 ± 0.16
same,% site 1 α1D,[1]; [4],61.2 ± 5.5%
same,Log KD α1D site 2,"[1]; two-component inhibition curve, second (low-affinity) component",-5.50 ± 0.25
same,Log KD α1B,human α1B-adrenoceptor; [12],-5.46 ± 0.05
same,selectivity α1B vs α1D,human α1B-adrenoceptor; [5],69
same,Log KD α1A,human α1A-adrenoceptor; [12],-6.76 ± 0.03
same,selectivity α1A vs 1D,human α1A-adrenoceptor,3.5
same,selectivity α1A vs α1B,human α1A-adrenoceptor,20
COc1cccc2c1CCC[C@H]2CN(C)CCc1ccc2ccoc2c1.CS(=O)(=O)O [A80426],Selectivity ratio α1B vs α1D,[1]; [3],1.0 fold
same,Log KD α1D,[1]; [10],−6.07 ± 0.07
same,selectivity α1B vs α1D,human α1B-adrenoceptor; [5],1.0
same,Log KD α1B,human α1B-adrenoceptor; [10],−6.08 ± 0.02
same,Selectivity ratio α1A vs α1D,human α1A-adrenoceptor; [7],3.1 fold
same,Selectivity ratio α1A vs α1B,human α1A-adrenoceptor; [8],3.1 fold
same,selectivity α1A vs 1D,human α1A-adrenoceptor,3.1
same,selectivity α1A vs α1B,human α1A-adrenoceptor,3.1
same,selectivities α1A vs α1B,human α1A-adrenoceptor,3.1
same,selectivities α1A vs α1D,human α1A-adrenoceptor,3.1
same,Log KD α1A,human α1A-adrenoceptor; [10],−6.57 ± 0.05
Labetolol,Selectivity ratio α1B vs α1D,[1],1.6 fold
same,selectivity α1B vs α1D,human α1B-adrenoceptor,1.6
same,Selectivity ratio α1A vs α1B,human α1A-adrenoceptor,26 fold
same,Selectivity ratio α1A vs α1D,human α1A-adrenoceptor,16 fold
COc1ccccc1N1CCN(CCN2C(=O)c3ccccc3C(C)(C)C2=O)CC1 [ARC239],% site 1 α1D,[1]; [13],60.5 ± 1.4% site 1
same,Log KD α1B,human α1B-adrenoceptor; [10],−8.15 ± 0.07
same,Log KD α1A,human α1A-adrenoceptor; [10],−9.35 ± 0.08
COc1ccccc1N1CCN(CC(O)COc2cccc3ccccc23)CC1 (centres unmarked) [Naftopidil],Kd,[1]; [9],87.1 nM
same,Selectivity ratio α1B vs α1D,[1]; [3],1.7 fold
same,selectivity α1B vs α1D,human α1B-adrenoceptor; [5],1.7
same,Kd,human α1B-adrenoceptor; [10],151 nM
same,Selectivity ratio α1A vs α1D,human α1A-adrenoceptor; [7],8.1 fold
same,Selectivity ratio α1A vs α1B,human α1A-adrenoceptor; [8],14 fold
same,Kd,human α1A-adrenoceptor; [11],10.7 nM
O=C1NCN(c2ccccc2)C12CCN(CC1COc3ccccc3O1)CC2 (centres unmarked) [Spiroxatrine],Kd,"[1]; Log KD α1D site 1, high-affinity component of two-component curve, control, used for selectivity",13.8 nM
same,Log KD α1D site 2,[1]; [2],−5.84 ± 0.31
same,% site 1 α1D,[1]; [13],61.9 ± 4.0% site 1
same,Selectivity ratio α1A vs α1D,[1]; [3],10 fold
same,Selectivity ratio α1B vs α1D,[1]; [3],28 fold
same,% site 1 α1D,[1]; [4],-7.86 ± 0.13 -5.84 ± 0.31 61.9 ± 4.0% site 1
same,selectivity α1B vs α1D,human α1B-adrenoceptor; [5],28
same,Kd,human α1B-adrenoceptor; [10],389 nM
same,Selectivity ratio α1A vs α1B,human α1A-adrenoceptor; [8],2.8 fold
same,selectivity α1A vs 1D,human α1A-adrenoceptor,10
same,Kd,human α1A-adrenoceptor; [11],138 nM
O=C1Cc2cc(CCN3CCN(c4nsc5ccccc45)CC3)c(Cl)cc2N1 [Ziprasidone],Kd,[1]; [9],63.1 nM
same,Selectivity ratio α1B vs α1D,human α1B-adrenoceptor,3.2 fold
same,Kd,human α1B-adrenoceptor; [10],20 nM
same,Selectivity ratio α1A vs α1D,human α1A-adrenoceptor; [7],34 fold
same,Selectivity ratio α1A vs α1B,human α1A-adrenoceptor; [8],11 fold
same,Kd,human α1A-adrenoceptor; [11],1.86 nM
Cc1ccc(/N=C/N(C)/C=N/c2ccc(C)cc2C)c(C)c1 [Amitraz],Kd,[1],8320 nM
same,Selectivity ratio α1B vs α1D,[1],>12 fold
same,selectivity α1B vs α1D,human α1B-adrenoceptor; [5],>12
same,IC50,human α1B-adrenoceptor; read-out: Log IC50 α1B (converted),> 100000 nM
same,Selectivity ratio α1A vs α1B,human α1A-adrenoceptor,>33 fold
same,Selectivity ratio α1A vs α1D,human α1A-adrenoceptor,2.8 fold
same,Kd,human α1A-adrenoceptor; [11],3020 nM
COC1(C2=NCCN2)COc2ccccc2O1 (centres unmarked) [RX821002],Log KD α1D,[1]; [10],−5.31 ± 0.13
same,Selectivity ratio α1B vs α1D,human α1B-adrenoceptor,1.4 fold
same,Log KD α1B,human α1B-adrenoceptor; [10],−5.46 ± 0.06
same,Selectivity ratio α1A vs α1D,human α1A-adrenoceptor; [7],16 fold
same,Selectivity ratio α1A vs α1B,human α1A-adrenoceptor; [8],11 fold
same,Log KD α1A,human α1A-adrenoceptor; [10],−6.51 ± 0.09
